Molecular target: T1, Ileal sodium/bile acid cotransporter (Homo sapiens, UniProt Q12908)
T1 sequence (Q12908 whole entry): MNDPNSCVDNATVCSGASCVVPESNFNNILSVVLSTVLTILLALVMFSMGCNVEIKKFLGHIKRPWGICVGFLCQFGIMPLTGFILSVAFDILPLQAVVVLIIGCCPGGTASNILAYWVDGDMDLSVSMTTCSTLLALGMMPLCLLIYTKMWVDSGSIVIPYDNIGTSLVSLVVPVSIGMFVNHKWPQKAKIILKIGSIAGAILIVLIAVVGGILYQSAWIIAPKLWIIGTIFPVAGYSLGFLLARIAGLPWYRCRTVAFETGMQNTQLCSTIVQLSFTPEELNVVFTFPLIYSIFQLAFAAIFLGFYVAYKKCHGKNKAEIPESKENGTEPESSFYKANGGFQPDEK
Assay: Inhibition Assay
Conditions: 25 °C
Experimental: On the day of the uptake experiment, 10 mM HEPES was added to Hank's Balanced Salt Solution, and the pH was adjusted to 7.4 with TRIS (HBSSH). The assay buffer was prepared by adding 100 uM [3H]-taurocholate and 10 uM cold taurocholate to room temperature HBSSH. A separate washing buffer was prepared by adding 10 uM cold taurocholate to HBSSH (30 ml per assay plate) and placed on ice. Using 100% DMSO, 8 point, 3-fold dilution curves for each test compound was prepared starting at 200 uM. […] Drug plates were created by adding 3 uL of each concentration to a v-bottom 96-well plate then diluted 60-fold with 177 uL of assay buffer. Plates were removed from the incubator and allowed to cool to ambient temperature.

SMILES	IC50 [µM]
CCCC[C@]1(CC)CS(=O)(=O)c2cc(CCCC(N)=O)c(OC)cc2[C@@H](c2ccccc2)N1 [US9040518, 24]	0.073
CCCC[C@]1(CC)CS(=O)(=O)c2cc(CN3CCC[C@H]3C(=O)O)c(OC)cc2[C@@H](c2ccccc2)N1 [US9040518, 63]	8.99

Reference: BindingDB's records for patent US9040518 (Glaxosmithkline, 2015)
